Reference: patent US10806746B2, “Di- and tri-cationic glycosylated antitumor ether lipids, L-gucosylated gaels and rhamnose-linked gaels as cytotoxic agents against epithelial cancer cells and cancer stem cells” (The University of Manitoba, priority 2014, dated 2020)
Read-outs that look alike come from different tables or passages of the source.

Experiments:
Type in all cases: cell-based, human
MDA-MB-231 cells = assay: MTS viability assay, MDA-MB-231 breast cancer cells
Description: (§1) FIG. 2A. Effects of compounds 1-11 on the viability of MDA-MB231 cells. MDA-MB-231 cells were cultured in DMEM medium supplemented with 10% FBS. Equal numbers were dispersed into 96-well plates. After 24 h, the cells were incubated with compounds 1-11 (0-30 μM) for 48 h. At the end of the incubation, MTS reagent (20% vol/vol) was added and the plates were incubated for 1-4 h. The OD490 was read with a plate reader. Wells with media but no cells were treated in similar fashion and the values utilized as blank. The results represent the mean±standard deviation of 6 independent determinations.
as §1, with “2K.” for “2A.”, “1, 69-72” for “1-11”, “MDA-MB-231” for “MDA-MB231”, “1, 69-72” for “1-11 (0-30 μM)”
(§2) The cell lines were cultured from frozen stocks originally obtained from ATCC. MDA-MB-231, JIMT-1, DU145, U81, U251 cells were grown in DMEM medium. BT474, A2780s, A2780cp cells were grown in DMEM/F12 medium supplemented with 10% FBS. MiaPaCa2 was cultured in DMEM supplemented with 10% FBS and 2.5% horse serum. PC3 cells were cultured in F12K medium supplemented with 10% FBS. All the media were supplemented with penicillin/streptomycin.
(§3) The effects of the GAELs on the viability of the various epithelial cancer cell lines was determined as previously described. Briefly, equal numbers of the cells were dispersed into 96-well plates. After 24 h, the cells were incubated with the compounds (0-30 μM) for 48 h. At the end of the incubation, MTS reagent (20% vol/vol) was added and the plates were incubated for 1-4 h. The OD490 was read with a plate reader. Wells with media but no cells were treated in similar fashion and the values utilized as blank. The results represent the mean±standard deviation of 6 independent determinations.

DU145 cells = assay: MTS viability assay, DU145 prostate cancer cells
Description: as §1, with “2D.” for “2A.”, “DU145” for “MDA-MB231”, “DU145” for “MDA-MB-231”
as §1, with “2H. Effect” for “2A. Effects”, “1, 69-72” for “1-11”, “DU145” for “MDA-MB231”, “DU145” for “MDA-MB-231”, “1, 69-72” for “1-11 (0-30 μM)”
as §2, §3

JIMT-1 cells = assay: MTS viability assay, JIMT-1 breast cancer cells
Description: as §1, with “2B.” for “2A.”, “JIMT-1” for “MDA-MB231”, “JIMT-1” for “MDA-MB-231”
as §1, with “2J.” for “2A.”, “1, 69-72” for “1-11”, “JIMT-1” for “MDA-MB231”, “JIMT-1” for “MDA-MB-231”, “1, 69-72” for “1-11 (0-30 μM)”
as §2, §3

MiaPaCa2 cells = assay: MTS viability assay, MiaPaCa2 pancreas cancer cells
Description: as §1, with “2F.” for “2A.”, “MiaPaCa2” for “MDA-MB231”, “MiaPaCa2” for “MDA-MB-231”, “FBS and 2.5% horse serum.” for “FBS.”
as §1, with “2I.” for “2A.”, “1, 69-72” for “1-11”, “MiaPaCa2” for “MDA-MB231”, “MiaPaCa2” for “MDA-MB-231”, “FBS and 2.5% horse serum.” for “FBS.”, “1, 69-72” for “1-11 (0-30 μM)”
as §2, §3

PC3 cells = assay: MTS viability assay, PC3 prostate cancer cells; conditions: 48 h, MTS
Description: as §1, with “2E.” for “2A.”, “PC3” for “MDA-MB231”, “PC3” for “MDA-MB-231”, “F12K” for “DMEM”
as §2, §3

BT-474 cells = assay: MTS viability assay, BT-474 breast cancer cells; conditions: 48 h, MTS
Description: as §1, with “2C.” for “2A.”, “BT-474” for “MDA-MB231”, “BT-474” for “MDA-MB-231”, “DMEM/F12” for “DMEM”
as §2, §3

[1] = tested on: BT-474, JIMT-1, MDA-MB-231 (breast), DU145, PC3 (prostate), MiaPaCa2 (pancreas); assay: MTS viability, panel of epithelial cancer cell lines (ranges over the cell lines)
Description: To determine the effect of compounds 1-10 on the viability of the epithelial cancer cell lines, exponentially growing cells, BT-474, JIMT-1, MDA-MB-231 (breast), DU145, PC3 (prostate), MiaPaCa2 (pancreas) were incubated with varying concentrations of 1-8 (0-30 μM) for 48 h followed by viability assays with the MTS reagent.
as §3

[2] = Table 1A, 48 h, read-out: CC50 values MD 231
[3] = Table 1B, 48 h, read-out: CC90 values MD 231
[4] = Table 1A, 48 h, read-out: CC50 values DU 145
[5] = Table 1B, 48 h, read-out: CC90 values DU 145
[6] = Table 1A, 48 h, read-out: CC50 values JIMT1
[7] = Table 1B, 48 h, read-out: CC90 values JIMT1
[8] = Table 1A, 48 h, read-out: CC50 values MiaPaCa2
[9] = Table 1B, 48 h, read-out: CC90 values MiaPaCa2
[10] = Table 1A, read-out: CC50 values PC3
[11] = Table 1B, read-out: CC90 values PC3
[12] = Table 1A, read-out: CC50 values BT474
[13] = Table 1B, read-out: CC90 values BT474

SMILES | CC50 (MDA-MB-231 cells; [2]) [µM] | CC90 (MDA-MB-231 cells; [3]) [µM] | CC50 (DU145 cells; [4]) [µM] | CC90 (DU145 cells; [5]) [µM] | CC50 (JIMT-1 cells; [6]) [µM] | CC90 (JIMT-1 cells; [7]) [µM] | CC50 (MiaPaCa2 cells; [8]) [µM] | CC90 (MiaPaCa2 cells; [9]) [µM] | CC50 (PC3 cells; [10]) [µM] | CC90 (PC3 cells; [11]) [µM] | CC50 (BT-474 cells; [12]) [µM] | CC90 (BT-474 cells; [13]) [µM] | also measured
CCCCCCCCCCCCCCCCOCC(CO[C@@H]1O[C@H](CO)[C@@H](O)[C@H](O)[C@H]1N)NC(=O)CCCCCCCCCCCCCCC (stereo partly drawn) [Compound 9, 1-O-Hexadecyloxy-2S/R—N-hexadecylacyl-3-(-2′-amino-2′-deoxy-β-D-glucopyranosyl)-glycerol] | > 30 | > 30 | > 30 | > 30 | > 30 | > 30 | > 30 | > 30 | > 30 | > 30 | > 30 | > 30 | activity at the highest concentration tested ([1]; 30 μM, all the cell lines tested): not active
CCCCCCCCCCCCCCCCOC[C@H](CO[C@@H]1O[C@H](CN)[C@@H](O)[C@H](O)[C@H]1N)OC [Compound 2, 1-O-Hexadecyl-2-O-methyl-3-O-(-2′,6′-diamino-2′,6′-dideoxy-β-D-glucopyranosyl)-sn-glycerol] | 5.5 | 7 | 6 | 8.5 | 4.2 | 6.5 | 7 | 12 | 11 | 14 | – | 14 | CC50 ([1]; range over the cell lines tested, 48 h, read-out: CC50 values, range depending on the cell line): 4.2 to 11.5 µM
CCCCCCCCCCCCCCCCOCC(N)CO[C@H]1O[C@H](CO)[C@@H](O)[C@H](O)[C@H]1N (stereo partly drawn) [Compound 8, 1-O-Hexadecyloxy-2S/R-amino-3-(-2′-amino-2′-deoxy-α-D-glucopyranosyl)-glycerol] | 6 | 9 | 6 | 9 | 5.5 | 7.5 | 8.5 | 14 | 9 | 14 | 15.5 | 28 | –
CCCCCCCCCCCCCCCCOC[C@H](COC1O[C@H](CN)[C@@H](O)[C@H](O)[C@H]1NCCCCCCCCCCCCN)OC (some centres unmarked) [Compound 75, 1-O-Hexadecyl-2-O-methyl-3-O-[2′-N-(12-aminododecyl)-2′,6′-diamino-2′,6′-dideoxy-glucopyranoside]-sn-glycerol] | – | – | – | – | – | – | – | – | – | – | – | – | CC50 (MDA-MB-231 cells; Table 6, 48 h, read-out: MB-MDA-231 CC50): 5.5 µM; CC90 (MDA-MB-231 cells; Table 6, 48 h, read-out: MB-MDA-231 CC90): 9.5 µM; CC50 (DU145 cells; Table 6, 48 h, read-out: DU145 CC50): 7.5 µM; CC90 (DU145 cells; Table 6, 48 h, read-out: DU145 CC90): 9.5 µM; CC50 (JIMT-1 cells; Table 6, 48 h, read-out: JIMT1 CC50): 8 µM; CC90 (JIMT-1 cells; Table 6, 48 h, read-out: JIMT1 CC90): 9.5 µM; CC50 (MiaPaCa2 cells; Table 6, 48 h, read-out: MiaPaCa2 CC50): 8.5 µM; CC90 (MiaPaCa2 cells; Table 6, 48 h, read-out: MiaPaCa2 CC90): 12 µM; CC50 (PC3 cells; Table 6, read-out: PC3 CC50): 8.5 µM; CC90 (PC3 cells; Table 6, read-out: PC3 CC90): 11.5 µM; CC50 (BT-474 cells; Table 6, read-out: BT474 CC50): 13.5 µM; CC90 (BT-474 cells; Table 6, read-out: BT474 CC90): 16.5 µM; cytotoxicity against all cell lines examined ([1]; tricationic GAELs, FIG. 2O, Table 6): cytotoxic
